What was measured:
Experiment in all cases: Test B pre-/postemergence plant response
Assay type in all cases: in vivo
[1] = tested on: surinam grass (Brachiaria decumbens); conditions: for Surinam Grass plant response rating: 8 g ai/ha
In short: (§1)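 Preemergence and postemergence (plants 2-18 cm, 1- to 4-leaf stage) applications used test chemicals in a non-phytotoxic solvent with surfactant. Plants were held in a greenhouse 13 to 15 days, then rated visually against controls on a 0-100 scale (0 no effect, 100 complete control).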

[2] = tested on: wheat (Triticum aestivum); conditions: for Wheat plant response rating: 8 g ai/ha
In short: as §1

[3] = tested on: lambsquarters (Chenopodium album); conditions: for Lambsquarters plant response rating: 8 g ai/ha
In short: as §1

soybean (Glycine max) = conditions: for Soybean plant response rating: 8 g ai/ha
In short: as §1

[4] = tested on: bermudagrass (Cynodon dactylon); conditions: for Bermudagrass plant response rating: 8 g ai/ha
In short: as §1

[5] = tested on: yellow nutsedge (Cyperus esculentus); conditions: for Nutsedge, Yellow plant response rating: 8 g ai/ha
In short: as §1

[6] = tested on: catchweed bedstraw (Galium aparine); conditions: Preemergence
In short: as §1

[7] = tested on: morningglory (Ipomoea coccinea); conditions: for Morningglory plant response rating: 8 g ai/ha
In short: as §1

[8] = tested on: cocklebur (Xanthium strumarium); conditions: for Cocklebur plant response rating: 8 g ai/ha
In short: as §1

kochia (Kochia scoparia) = conditions: for Kochia plant response rating: 8 g ai/ha
In short: as §1

corn (Zea mays) = conditions: for Corn plant response rating: 8 g ai/ha
In short: as §1

[9] = tested on: blackgrass (Alopecurus myosuroides); conditions: for Blackgrass plant response rating: 8 g ai/ha
In short: as §1

[10] = tested on: downy bromegrass (Bromus tectorum); conditions: for Bromegrass, Downy plant response rating: 8 g ai/ha
In short: as §1

[11] = tested on: Russian thistle (Salsola iberica); conditions: Preemergence
In short: as §1

[12] = Postemergence, 16 g ai/ha, scale 0 to 100
[13] = Postemergence, 62 g ai/ha, scale 0 to 100, 0 no effect, 100 complete control
[14] = Preemergence, 16 g ai/ha, scale 0 to 100 (0 no effect, 100 complete control)
[15] = Preemergence, 31 g ai/ha, scale 0 to 100 (0 no effect, 100 complete control)
[16] = Preemergence, 62 g ai/ha, 0 to 100 scale, 0 no effect, 100 complete control
[17] = Postemergence, 31 g ai/ha, scale 0 to 100, 0 no effect, 100 complete control
[18] = Preemergence, 31 g ai/ha, 0 to 100 scale, 0 no effect, 100 complete control
[19] = Preemergence, 62 g ai/ha, scale 0 to 100

CCc1cc(-c2ccc(Cl)cc2)nn1-c1c(OC(=O)OC(C)C)cnn(C)c1=O [Compound 41]
50: Plant response rating, Galium ([6]; 31 g ai/ha, 0 to 100 scale, 0 no effect, 100 complete control) | Plant response rating, Bromegrass, Downy [10, 12]
85: Plant response rating, Wheat [2, 12] | Plant response rating, Wheat [2, 13] | Corn plant response rating (corn (Zea mays); postemergence, 0-100 scale) | Plant response rating, Corn (corn (Zea mays); [12]) | Plant response rating, Corn (corn (Zea mays); [18]) | Blackgrass plant response rating ([9]; postemergence, 0-100 scale) | Plant response rating, Bromegrass, Downy [10, 13]
0: Surinam Grass plant response rating ([1]; Preemergence, scale 0 to 100) | Lambsquarters plant response rating ([3]; postemergence, 0-100 scale) | Plant response rating, Lambsquarters [3, 12] | Plant response rating, Lambsquarters [3, 17] | Plant response rating, Lambsquarters [3, 13] | Plant response rating, Lambsquarters [3, 14] | Plant response rating, Lambsquarters [3, 18] | Plant response rating, Lambsquarters [3, 19] | Lambsquarters plant response rating ([3]; Preemergence, scale 0 to 100) | Soybean plant response rating (soybean (Glycine max); postemergence, 0-100 scale) | Plant response rating, Soybean (soybean (Glycine max); [12]) | Plant response rating, Soybean (soybean (Glycine max); [13]) | Plant response rating, Soybean (soybean (Glycine max); [14]) | Plant response rating, Soybean (soybean (Glycine max); [15]) | Plant response rating, Soybean (soybean (Glycine max); [19]) | Soybean plant response rating (soybean (Glycine max); Preemergence, scale 0 to 100) | Bermudagrass plant response rating ([4]; postemergence, 0-100 scale) | Plant response rating, Bermudagrass [4, 12] | Bermudagrass plant response rating ([4]; Preemergence, scale 0 to 100 (0 no effect, 100 complete control)) | Plant response rating, Bermudagrass [4, 14] | Plant response rating, Bermudagrass [4, 18] | Plant response rating, Bermudagrass [4, 19] | Nutsedge, Yellow plant response rating ([5]; postemergence, 0-100 scale) | Plant response rating, Nutsedge, Yellow [5, 12] | Plant response rating, Nutsedge, Yellow [5, 17] | Plant response rating, Nutsedge, Yellow [5, 13] | Plant response rating, Nutsedge, Yellow [5, 14] | Plant response rating, Nutsedge, Yellow [5, 15] | Plant response rating, Nutsedge, Yellow [5, 19] | Nutsedge, Yellow plant response rating ([5]; Preemergence, scale 0 to 100) | Plant response rating, Galium ([6]; 16 g ai/ha, scale 0 to 100 (0 no effect, 100 complete control)) | Galium plant response rating ([6]; 8 g ai/ha, scale 0 to 100) | Morningglory plant response rating ([7]; postemergence, 0-100 scale) | Plant response rating, Morningglory [7, 12] | Plant response rating, Morningglory [7, 17] | Plant response rating, Morningglory [7, 13] | Plant response rating, Morningglory [7, 14] | Plant response rating, Morningglory [7, 15] | Plant response rating, Morningglory [7, 19] | Morningglory plant response rating ([7]; Preemergence, scale 0 to 100) | Cocklebur plant response rating ([8]; postemergence, 0-100 scale) | Plant response rating, Cocklebur [8, 12] | Plant response rating, Cocklebur [8, 17] | Plant response rating, Cocklebur [8, 13] | Plant response rating, Cocklebur [8, 14] | Plant response rating, Cocklebur [8, 18] | Plant response rating, Cocklebur [8, 19] | Cocklebur plant response rating ([8]; Preemergence, scale 0 to 100) | Kochia plant response rating (kochia (Kochia scoparia); postemergence, 0-100 scale) | Plant response rating, Kochia (kochia (Kochia scoparia); [12]) | Plant response rating, Kochia (kochia (Kochia scoparia); [17]) | Plant response rating, Kochia (kochia (Kochia scoparia); [13]) | Plant response rating, Kochia (kochia (Kochia scoparia); [14]) | Plant response rating, Kochia (kochia (Kochia scoparia); [18]) | Plant response rating, Kochia (kochia (Kochia scoparia); [19]) | Kochia plant response rating (kochia (Kochia scoparia); Preemergence, scale 0 to 100) | Plant response rating, Russian Thistle ([11]; 31 g ai/ha, scale 0 to 100 (0 no effect, 100 complete control)) | Plant response rating, Russian Thistle ([11]; 62 g ai/ha, scale 0 to 100)
80: Wheat plant response rating ([2]; postemergence, 0-100 scale) | Plant response rating, Bromegrass, Downy [10, 19]
95: Plant response rating, Bermudagrass [4, 13] | Plant response rating, Corn (corn (Zea mays); [17]) | Plant response rating, Corn (corn (Zea mays); [13]) | Plant response rating, Corn (corn (Zea mays); [19]) | Plant response rating, Blackgrass [9, 17] | Plant response rating, Blackgrass [9, 13] | Blackgrass plant response rating ([9]; Preemergence, scale 0 to 100)
10: Wheat plant response rating ([2]; Preemergence, scale 0 to 100)
45: Corn plant response rating (corn (Zea mays); Preemergence, scale 0 to 100)
60: Plant response rating, Wheat [2, 15] | Plant response rating, Bromegrass, Downy [10, 17]
75: Plant response rating, Bromegrass, Downy [10, 18]
30: Bromegrass, Downy plant response rating ([10]; postemergence, 0-100 scale)
25: Plant response rating, Bermudagrass [4, 17]
55: Plant response rating, Surinam Grass [1, 15]
100: Surinam Grass plant response rating ([1]; postemergence, 0-100 scale) | Plant response rating, Surinam Grass [1, 12] | Plant response rating, Surinam Grass [1, 13] | Plant response rating, Surinam Grass [1, 16] | Plant response rating, Wheat [2, 16] | Plant response rating, Galium ([6]; 62 g ai/ha, scale 0 to 100) | Plant response rating, Blackgrass [9, 14] | Plant response rating, Blackgrass [9, 18] | Plant response rating, Blackgrass [9, 19]
70: Plant response rating, Bromegrass, Downy [10, 14] | Bromegrass, Downy plant response rating ([10]; Preemergence, scale 0 to 100)
40: Plant response rating, Surinam Grass [1, 14]
65: Plant response rating, Corn (corn (Zea mays); [14])
90: Plant response rating, Blackgrass [9, 12]
15: Plant response rating, Wheat [2, 14]
